{"source": "patent US20070254891A1", "about": "“Crystalline forms of 4-(2-fluorophenyl)-6-methyl-2-(piperazin-1-yl)thieno[2,3-d]pyrimidine” (Dynogen Pharmaceuticals, Inc., priority 2006, published 2007)", "format_in_all_cases": "physicochemical", "key": {"[1]": {"assay": "Gravimetric vapor sorption (GVS)", "method": "GVS was used to determine the amount of water adsorbed by a sample. Briefly, samples were run on a Hiden IGASorp moisture sorption analyzer running CFRSorp software. Sample sizes were typically 10 mg. A moisture adsorption desorption isotherm was performed as outlined below in Table 3 (2 scans giving 1 complete cycle). Samples were loaded/unloaded at typical room humidity and temperature (40% RH, 25° C.). Samples were then analyzed by XRPD after GVS analysis, e.g., to determine whether any structural changes took place after adsorption of water. The standard isotherm was performed at 25° C. at 10% RH intervals over a 0-90% RH range."}, "[2]": {"assay": "10 week stability study at 40° C./75% RH and 60° C./75% RH, light and dark", "method": "(§1) Purity analysis was performed on an Agilent HP1100 system equipped with a diode array detector and using Chemstation V9 software. Gradient, Reverse Phase methods (duration approximately 40 minutes) were used in a HPLC1 system. A Thermo-Electron Corporation HyPurity C18 5 um 150×4.6 mm column was used at 25° C. Test samples were made-up of 0.2 mg/ml of the compound in acetonitrile:water (1:1 v/v). 10 μl of sample was injected into the column. The flow rate through the column was 1 ml/min and the detection wavelength, bandwidth was 254,8 nm. Phase A was 0.1% phosphoric acid in water and Phase B was 0.1% phosphoric acid in acetonitrile. The mobile phase timetable is shown below in Table 2.\nSamples of Form I and II were tested at 40° C./75% RH and 60° C./75% RH in both light and dark conditions for up to 10 weeks. As the samples were located in temperature/humidity control chambers, the exposure to light was limited to normal laboratory light conditions with artificial light and some winter daylight through the windows.\nApproximately 100 mg of each sample was weighed into plastic weighing boats and spread out to form an even thin layer for each of the temperature/humidity/light conditions, as shown in Table 6. The dark samples were protected from exposure to light by wrapping them in aluminum foil. The foil was pierced to allow exposure to humidity.\nTime points chosen for HPLC analysis during the stability study were T=0, 1, 2, 5 and 10 weeks. At 10 weeks, the samples were analyzed using XRPD, DSC and polarized light microscopy."}, "[3]": {"assay": "LogP / LogPion / LogD by potentiometric titration (octanol:ISA water)", "method": "LogP was determined using a potentiometric titration on a Sirius GlpKa instrument using three ratios of Octanol:ISA water to generate Log P, Log Pion, and Log D values. The data was refined using Refinement Pro software version 1.0. Predictions of LogP were made using ACD Ver 8 and Syracuse KOWWIN Ver 1.67 software."}, "[4]": {"assay": "Aqueous solubility with pH measurement", "details": "water; for solubility at 24 h: 25 °C, thermodynamic from solid", "method": "Each sample was suspended in 0.25 ml of solvent (water) in an amount effective to produce a maximum final concentration of greater than or equal to about 10 mg/ml of the parent free form of the compound (i.e., adding excess sample to account for the weight of the salt). […] The filtrate was then diluted down 101 times."}, "[5]": {"assay": "Storage at 40° C./75% RH under ambient light (XRPD, HPLC purity, colour)", "method": "as §1\nForm I was characterized by pKa, LogP, LogPion and LogD determination and prediction, XRPD before and after storage at 40° C./75% RH for 4 weeks, PLM, DSC and TGA, ^1HNMR, solubility in water with pH measurement, HPLC purity before and after storage at 40° C./75% RH for 4 weeks, water content, GVS with XRPD and purity analysis after measurement, and VT-XRPD.\nForm II has been characterized using XRPD before and after storage at 40° C./75% RH for 3 weeks, PLM, DSC and TGA, Solubility in water with pH measurement, HPLC purity, Water content, GVS with XRPD analysis after measurement, and VT-XRPD."}, "[6]": {"assay": "Accelerated light stability study (Atlas Suntest CPS+ light box)", "method": "as §1\nAccelerated Light stability experiments were conducted using an Atlas Suntest CPS+light box. The light exposure was set to 550 W/m^2 and the run time was set to 168 hours (1 week). The chamber temperature and black standard temperature (which indicates how hot the test samples will become) were set to 25° C. The actual temperature in the sample chamber was 40° C.\nForm I and II were assessed using an Atlas Suntest CPS+ light box to determine the effect of their exposure to light over a period of 168 hours (1 week). The light exposure was set to 550 W/M^2. Samples were weighed into either open weighing boats covered by pyrex glass beakers, glass vials with open tops (no lid), or glass vials covered in Aluminum foil. In all instances, the material was spread out into an even, thin layer."}, "[7]": {"assay": "pKa determination (Sirius GlpKa, potentiometric and UV)", "method": "pKa was measured on a Sirius GlpKa instrument equipped with a D-PAS attachment. A UV measurement was taken when the sample was in an aqueous solution and a potentiometric was taken when the sample was in a MeOH:H2O mixture. Measurements were taken at 25° C. The titration media was ionic strength adjusted with 0.15M KCl. Values determined from potentiometric measurements in the MeOH:H2O mixtures were corrected to 0% co-solvent via a Yasuda-Shedlovsky extrapolation. The data was refined using Refinement Pro software version 1.0. Prediction of pKa values was made using ACD pKa prediction software Ver 8."}, "[8]": {"assay": "Variable temperature XRPD (VT-XRPD)", "details": "heating; irreversible; hydrochloride", "method": "Samples run under ambient conditions were prepared as flat plate specimens using powder without grinding unless otherwise stated. Approximately 1-2 mg of the sample was lightly pressed on a glass slide to obtain a flat surface. Samples run under non-ambient conditions (VT-XRPD) were mounted on a silicon wafer with heat conducting compound. The sample was then heated to the appropriate temperature at about 20° C./minute and subsequently held isothermally for about 1 minute before data collection was initiated.\nThree samples were studied using variable temperature XRPD (VT-XRPD): Form I as received, substantially pure Form I as prepared in Example 3, and substantially pure Form II as prepared in Example 3. VT-XRPD studies were initially carried out on substantially pure Form I as prepared in Example 3 with measurements at 25° C., 50° C., 80° C., 150° C., 220° C., 225° C., 250° C. and cooling to 29° C. Prior to measurement of the last XRPD pattern, the material was crushed due to the growth of large crystals. An overlay of the XRPD patterns can be found in FIG. 4A.\nAn experiment was also carried out on Form I as received, with measurements at 26° C., 50° C., 150° C., 200° C., 210° C., 220° C., 230° C. and cooling to 27° C. An overlay of the XRPD patterns can be found in FIG. 4B. […] (see peak at ˜14.7 2θ). […]"}, "[9]": {"details": "4 weeks at 40° C./75% RH, ambient light"}}, "note": "Like-named read-outs stand apart in the source and are kept apart here.", "data": [{"smiles": "Cc1cc2c(-c3ccccc3F)nc(N3CCNCC3)nc2s1.Cl", "note": "[Form I, 4-(2-fluorophenyl)-6-methyl-2-(piperazin-1-yl)thieno[2,3-d]pyrimidine hydrochloride]", "values": [{"measurement": "XRPD reanalysis after GVS", "setting": "[1]; after one adsorption/desorption cycle", "result": "did not show any change"}, {"measurement": "GVS total weight increase", "setting": "[1]; between 0 and 90% RH, single cycle, 25° C., hydrochloride", "result": 5.0, "unit": "%"}, {"measurement": "GVS weight increase", "setting": "[1]; between 20% and 30% RH", "result": "about 4.8%"}, {"measurement": "GVS weight increase, equivalent water", "setting": "[1]; between 20% and 30% RH", "result": "1.0 moles of water"}, {"measurement": "Purity %", "setting": "[2]; 40° C./75% RH, Dark, 1 week", "result": 99.9, "unit": "%"}, {"measurement": "Purity %", "setting": "[2]; 40° C./75% RH, Dark, 2 weeks", "result": 100, "unit": "%"}, {"measurement": "Purity %", "setting": "[2]; 40° C./75% RH, Dark, 5 weeks", "result": 100, "unit": "%"}, {"measurement": "Purity %", "setting": "[2]; 40° C./75% RH, Dark, 10 weeks, hydrochloride", "result": 99.9, "unit": "%"}, {"measurement": "Purity %", "setting": "[2]; 40° C./75% RH, Light, 1 week", "result": 99.9, "unit": "%"}, {"measurement": "Purity %", "setting": "[2]; 40° C./75% RH, Light, 2 weeks", "result": 100, "unit": "%"}, {"measurement": "Purity %", "setting": "[2]; 40° C./75% RH, Light, 5 weeks, hydrochloride", "result": 99.8, "unit": "%"}, {"measurement": "Purity %", "setting": "[2]; 40° C./75% RH, Light, 10 weeks, hydrochloride", "result": 99.4, "unit": "%"}, {"measurement": "Purity %", "setting": "[2]; 60° C./75% RH, Dark, 1 week", "result": 99.9, "unit": "%"}, {"measurement": "Purity %", "setting": "[2]; 60° C./75% RH, Dark, 2 weeks, hydrochloride", "result": 99.9, "unit": "%"}, {"measurement": "Purity %", "setting": "[2]; 60° C./75% RH, Dark, 5 weeks", "result": 100, "unit": "%"}, {"measurement": "Purity %", "setting": "[2]; 60° C./75% RH, Dark, 10 weeks, hydrochloride", "result": 100, "unit": "%"}, {"measurement": "Purity %", "setting": "[2]; 60° C./75% RH, Light, 1 week", "result": 99.8, "unit": "%"}, {"measurement": "Purity %", "setting": "[2]; 60° C./75% RH, Light, 2 weeks, hydrochloride", "result": 99.8, "unit": "%"}, {"measurement": "Purity %", "setting": "[2]; 60° C./75% RH, Light, 5 weeks, hydrochloride", "result": 99.5, "unit": "%"}, {"measurement": "Purity %", "setting": "[2]; 60° C./75% RH, Light, 10 weeks, hydrochloride", "result": 99.4, "unit": "%"}, {"measurement": "Yellow coloration of the surface (visual inspection)", "setting": "[2]; after 10 weeks, both storage conditions", "result": "greatest"}, {"measurement": "Purity %", "setting": "[2]; time point 0 weeks, hydrochloride", "result": 100, "unit": "%"}, {"measurement": "Stability as indicated by the HPLC data", "setting": "[2]; up to 10 weeks, 40° C./75% RH and 60° C./75% RH", "result": "stable to ambient light levels as well as elevated temperature and humidity"}, {"measurement": "LogPion", "setting": "[3]; 0.15M KCl(Aq) / 1-octanol", "result": 1.41}, {"measurement": "logP", "setting": "[3]; 1-octanol / 0.15M KCl (aq), 0.15M KCl(Aq) / 1-octanol", "result": 3.96}, {"measurement": "logD", "setting": "[3]; octanol/ISA water, pH 7.4", "result": 2.72}, {"measurement": "pH of the solubility sample", "setting": "[4]; 25° C., 24 hours, hydrochloride", "result": 6.33}, {"measurement": "solubility at 24 h", "setting": "[4]; read-out: Aqueous solubility (as the hydrochloride)", "result": 2100, "unit": "µg/mL"}, {"measurement": "solubility at 24 h", "setting": "[4]; read-out: Aqueous solubility (free base equivalent)", "result": 1700, "unit": "µg/mL"}, {"measurement": "Colour of material surface after storage", "setting": "[5]; [9]", "result": "gone yellow"}, {"measurement": "HPLC purity after storage", "setting": "[5]; [9]", "result": 99.0, "unit": "%"}, {"measurement": "XRPD pattern after storage", "setting": "[5]; 40° C./75% RH for four weeks", "result": "unchanged"}, {"measurement": "Purity after 1 week light exposure", "setting": "[6]; 20 ml glass vial covered in Al foil with loose lid (control)", "result": 99.9}, {"measurement": "Purity after 1 week light exposure", "setting": "[6]; 20 ml glass vial, 550 W/m^2, 168 hours, hydrochloride", "result": 77.8}, {"measurement": "HPLC purity after accelerated light study", "setting": "[6]; one week, FIGS. 6A/6B (open weighing boats), hydrochloride", "result": 79.4, "unit": "%"}, {"measurement": "Purity after 1 week light exposure", "setting": "[6]; open weighing boat, 550 W/m^2, 168 hours, hydrochloride", "result": 79.4}, {"measurement": "pKa", "setting": "[7]; MeOH:H2O mixtures, extrapolated to 0% co-solvent, potentiometric determination in MeOH/water, Yasuda-Shedlovsky extrapolation, read-out: pKa (basic)", "result": 8.64}, {"measurement": "pKa", "setting": "[7]; aqueous solution, UV spectroscopy (D-PAS attachment), read-out: pKa of second basic centre", "result": 0.81}]}, {"smiles": "Cc1cc2c(-c3ccccc3F)nc(N3CCNCC3)nc2s1.Cl", "note": "[Form III, 4-(2-fluorophenyl)-6-methyl-2-(piperazin-1-yl)thieno[2,3-d]pyrimidine hydrochloride]", "values": [{"measurement": "Temperature of conversion into Form II", "setting": "[8]", "result": "200-220 °C"}]}]}
